In patent publication US20250381179A1, “CHROMAN-BASED COMPOUNDS FOR TREATING CANCER” (priority 2024, published 2025):
Read-outs that look alike come from different tables or passages of the source.

What was measured:
CYP3A4 = CYP3A4 induction in vitro (activity, mRNA); type: in vitro ADME
[1] = Phase 1 study: plasma pharmacokinetics in patients; type: in vivo, human; conditions: for conversion to compound (1-h) in patients: plasma PK after oral dosing
Description: All patients received compound (1-g) orally. The time of day for administration of compound (1-g) was consistent. Compound (1-g) was taken whole with liquid(s) and with food in the morning. The patient avoided taking other medications at the same time as compound (1-g). When possible, the patient took other medications in the evening or separated by a minimum of 4 hours following compound (1-g) dosing. On scheduled PK collection days (Cycle 1 Day 1, Cycle 1 Day 15, and Day 1 of Cycles 2, 3, 4, and 6) patients were instructed to wait until they arrive at the study center to take their study drug when told. If a patient missed a dose of compound (1-g), the patient was required to take the dose as soon as possible, but not less than 12 hours before the next dose is due. If vomiting occurred after taking the study treatment, the patient was instructed not to retake the dose and record the dose recorded as taken in the dosing diary, noting that the patient vomited and marking the time of vomiting. Patients were instructed to take the next scheduled dose of compound (1-g).
The plasma PK parameters (including AUC(0-∞), AUC(0-τ), Cmax, tmax, and T1/2) of compound (1-g) following oral administration was assessed by analysis of blood samples. During treatment, PK blood samples were taken at approximately the following time points: • Cycle 1 Day 1, and Day 15: pre-dose; at 1, 2, and 4-hour post-dose (±5 min); 6 and 8-hour post-dose (±10 min); and 24 hours post-dose (+1 hour); • Cycle 2, 3, 4, and 6 Day 1: pre-dose only.
Plasma concentrations of compound (1-g) were used to calculate the PK parameters. These parameters were listed by individual patient and summarized by descriptive statistics (means, medians, ranges, standard deviations, and coefficients of variation as appropriate) by cohort.
Compound (1-g) was administered orally to patients once a day at 100, 200, 300 mg, 400 mg, and 600 mg doses.

ERa = molecular target: T1, ERa (Homo sapiens, UniProt P03372); test: Binding to human ERa; conditions: for IC50: read-out: half-maximal inhibitory concentration (IC50) (converted)
T1 sequence (P03372 1-595): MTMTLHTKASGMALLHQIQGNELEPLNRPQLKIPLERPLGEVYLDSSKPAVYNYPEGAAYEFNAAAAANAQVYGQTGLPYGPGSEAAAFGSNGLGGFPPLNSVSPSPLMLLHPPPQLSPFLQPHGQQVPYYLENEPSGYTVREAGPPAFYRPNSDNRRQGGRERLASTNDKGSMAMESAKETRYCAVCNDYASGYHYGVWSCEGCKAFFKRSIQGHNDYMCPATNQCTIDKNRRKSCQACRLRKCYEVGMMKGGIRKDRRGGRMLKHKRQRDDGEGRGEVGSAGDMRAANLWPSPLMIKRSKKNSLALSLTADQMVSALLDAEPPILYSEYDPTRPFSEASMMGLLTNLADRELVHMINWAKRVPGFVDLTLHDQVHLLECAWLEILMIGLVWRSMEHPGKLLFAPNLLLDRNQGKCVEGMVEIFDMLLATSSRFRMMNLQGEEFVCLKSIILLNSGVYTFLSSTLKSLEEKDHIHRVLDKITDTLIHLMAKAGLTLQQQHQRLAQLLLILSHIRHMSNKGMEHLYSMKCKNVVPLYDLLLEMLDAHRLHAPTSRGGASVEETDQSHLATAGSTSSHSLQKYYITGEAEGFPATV

CYP3A = CYP3A direct inhibition; type: in vitro ADME; conditions: highest concentration evaluated (10 μM)
[2] = molecular target: human cytochrome P450 CYP3A5 (Homo sapiens, UniProt P20815); test: In vitro metabolism by CYP3A5; type: in vitro ADME
human cytochrome P450 CYP3A5, sequence (P20815 whole entry): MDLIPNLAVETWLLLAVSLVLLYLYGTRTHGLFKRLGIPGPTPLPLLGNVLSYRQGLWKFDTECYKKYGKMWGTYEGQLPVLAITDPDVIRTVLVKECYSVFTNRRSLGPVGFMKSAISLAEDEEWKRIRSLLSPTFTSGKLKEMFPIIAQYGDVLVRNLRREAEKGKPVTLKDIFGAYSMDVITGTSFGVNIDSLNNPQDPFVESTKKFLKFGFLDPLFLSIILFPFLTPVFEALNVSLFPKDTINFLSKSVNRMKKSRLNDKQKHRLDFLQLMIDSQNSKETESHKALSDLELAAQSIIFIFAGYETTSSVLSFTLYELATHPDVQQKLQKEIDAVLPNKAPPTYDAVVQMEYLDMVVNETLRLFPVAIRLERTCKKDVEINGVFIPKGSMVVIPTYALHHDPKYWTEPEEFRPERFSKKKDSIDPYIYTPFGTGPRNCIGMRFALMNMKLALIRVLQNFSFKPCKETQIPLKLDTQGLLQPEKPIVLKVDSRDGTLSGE

[3] = molecular target: human cytochrome P450 CYP3A4 (Homo sapiens, UniProt P08684); test: In vitro metabolism by CYP3A4; type: in vitro ADME
human cytochrome P450 CYP3A4, sequence (P08684 whole entry): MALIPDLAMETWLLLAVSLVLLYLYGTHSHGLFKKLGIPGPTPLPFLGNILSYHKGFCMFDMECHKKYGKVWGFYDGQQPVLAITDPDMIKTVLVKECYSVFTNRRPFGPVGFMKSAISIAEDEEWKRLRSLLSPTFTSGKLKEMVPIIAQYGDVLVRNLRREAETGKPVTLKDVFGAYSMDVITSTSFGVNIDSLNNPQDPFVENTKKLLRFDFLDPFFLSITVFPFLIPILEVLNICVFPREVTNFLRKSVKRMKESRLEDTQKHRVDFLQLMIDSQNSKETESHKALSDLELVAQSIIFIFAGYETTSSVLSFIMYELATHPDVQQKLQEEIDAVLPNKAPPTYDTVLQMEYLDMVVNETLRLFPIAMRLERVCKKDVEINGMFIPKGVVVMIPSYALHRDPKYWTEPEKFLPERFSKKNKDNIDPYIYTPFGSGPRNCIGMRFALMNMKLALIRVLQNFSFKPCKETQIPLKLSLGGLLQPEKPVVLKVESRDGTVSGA

in vivo = conditions: male, rat, po
CYP1A2 = CYP1A2 induction in hepatocytes (activity, mRNA); type: in vitro ADME; conditions: for CYP1A2 mRNA expression increase: 1 of 3 hepatocyte donors

With `O=C1CC[C@H](N2Cc3cc(N4CCN(CC5CCN(c6ccc([C@@H]7c8ccc(O)cc8OC[C@@H]7c7ccccc7)cc6F)CC5)CC4)ccc3C2=O)C(=O)N1` [compound (1-g), (S)-3-(5-(4-((1-(2-fluoro-4-((3S,4R)-7-hydroxy-3-phenylchroman-4-yl)phenyl)piperidin-4-yl)methyl)piperazin-1-yl)-1-oxoisoindolin-2-yl)piperidine-2,6-dione] the “CYP3A4 induction (activity or mRNA expression)” value (CYP3A4) was “did not significantly induce activity or mRNA expression”, the Tmax ([1]; human, plasma, po, 100 mg, patient plasma, oral (1-g) 100 mg QD, C1D1, n = 3, *median value, read-out: Tmax*) was 12.7 h and the AUC(0-t) ([1]; human, plasma, po, 100 mg, patient plasma, oral (1-g) 100 mg QD, C1D1, n = 3, mean, read-out: AUC0-24 h) was 7570 ng·h/mL. The Cmax ([1]; human, plasma, po, 100 mg, patient plasma, oral (1-g) 100 mg QD, C1D1, n = 3, mean, read-out: Cmax) was 432 ng/mL, the half-life ([1]; human, plasma, po, 100 mg, patient plasma, oral (1-g) 100 mg QD, C1D1, n = 3, mean, read-out: T½ (converted)) was 20.2 h and the AUC(0-t) ([1]; human, plasma, po, 100 mg, patient plasma, oral (1-g) 100 mg QD, C1D15 (steady state), n = 3, mean, read-out: AUC0-24 h) was 19500 ng·h/mL. It also gave a Cmax ([1]; human, plasma, po, 100 mg, patient plasma, oral (1-g) 100 mg QD, C1D15 (steady state), n = 3, mean, read-out: Cmax) of 1010 ng/mL, a Tmax ([1]; human, plasma, po, 100 mg, patient plasma, oral (1-g) 100 mg QD, C1D15, n = 3, *median value, read-out: Tmax*) of 6.67 h and a half-life ([1]; human, plasma, po, 100 mg, patient plasma, oral (1-g) 100 mg QD, C1D15, n = 3, mean, read-out: T½ (converted)) of 32.1 h. For the same compound, the Tmax ([1]; human, plasma, po, 200 mg, patient plasma, oral (1-g) 200 mg QD, C1D1, n = 12, *median value, read-out: Tmax*) was 5.5 h, the AUC(0-t) ([1]; human, plasma, po, 200 mg, patient plasma, oral (1-g) 200 mg QD, C1D1, n = 12, mean, read-out: AUC0-24 h) was 11200 ng·h/mL and the Cmax ([1]; human, plasma, po, 200 mg, patient plasma, oral (1-g) 200 mg QD, C1D1, n = 12, mean, read-out: Cmax) was 630 ng/mL. It also gave a half-life ([1]; human, plasma, po, 200 mg, patient plasma, oral (1-g) 200 mg QD, C1D1, n = 12, mean, read-out: T½ (converted)) of 38.3 h, an AUC(0-t) ([1]; human, plasma, po, 200 mg, patient plasma, oral (1-g) 200 mg QD, C1D15 (steady state), n = 12, mean, read-out: AUC0-24 h) of 26000 ng·h/mL and a Cmax ([1]; human, plasma, po, 200 mg, patient plasma, oral (1-g) 200 mg QD, C1D15 (steady state), n = 12, mean, read-out: Cmax) of 1340 ng/mL. For the same compound, the Tmax ([1]; human, plasma, po, 200 mg, patient plasma, oral (1-g) 200 mg QD, C1D15, n = 12, *median value, read-out: Tmax*) was 4 h, the half-life ([1]; human, plasma, po, 200 mg, patient plasma, oral (1-g) 200 mg QD, C1D15, n = 12, mean, read-out: T½ (converted)) was 48.8 h and the Tmax ([1]; human, plasma, po, 300 mg, patient plasma, oral (1-g) 300 mg QD, C1D1, n = 10, *median value, read-out: Tmax*) was 5.8 h. For the same compound, the AUC(0-t) ([1]; human, plasma, po, 300 mg, patient plasma, oral (1-g) 300 mg QD, C1D1, n = 10, mean, read-out: AUC0-24 h) was 16600 ng·h/mL, the Cmax ([1]; human, plasma, po, 300 mg, patient plasma, oral (1-g) 300 mg QD, C1D1, n = 10, mean, read-out: Cmax) was 963 ng/mL and the half-life ([1]; human, plasma, po, 300 mg, patient plasma, oral (1-g) 300 mg QD, C1D1, n = 10, mean, read-out: T½ (converted)) was 31.2 h. The AUC(0-t) ([1]; human, plasma, po, 300 mg, patient plasma, oral (1-g) 300 mg QD, C1D15 (steady state), n = 10, mean, read-out: AUC0-24 h) was 41800 ng·h/mL, the Cmax ([1]; human, plasma, po, 300 mg, patient plasma, oral (1-g) 300 mg QD, C1D15 (steady state), n = 10, mean, read-out: Cmax) was 2190 ng/mL and the Tmax ([1]; human, plasma, po, 300 mg, patient plasma, oral (1-g) 300 mg QD, C1D15, n = 10, *median value, read-out: Tmax*) was 4.8 h. For the same compound, the half-life ([1]; human, plasma, po, 300 mg, patient plasma, oral (1-g) 300 mg QD, C1D15, n = 10, mean, read-out: T½ (converted)) was 32.9 h, the Tmax ([1]; human, plasma, po, 400 mg, patient plasma, oral (1-g) 400 mg QD, C1D1, n = 6, *median value, read-out: Tmax*) was 6 h and the AUC(0-t) ([1]; human, plasma, po, 400 mg, patient plasma, oral (1-g) 400 mg QD, C1D1, n = 6, mean, read-out: AUC0-24 h) was 18800 ng·h/mL. It also gave a Cmax ([1]; human, plasma, po, 400 mg, patient plasma, oral (1-g) 400 mg QD, C1D1, n = 6, mean, read-out: Cmax) of 1070 ng/mL, a half-life ([1]; human, plasma, po, 400 mg, patient plasma, oral (1-g) 400 mg QD, C1D1, n = 6, mean, read-out: T½ (converted)) of 30.4 h and a Tmax ([1]; human, plasma, po, 400 mg, patient plasma, oral (1-g) 400 mg QD, C1D15, n = 5, *median value, read-out: Tmax*) of 4.4 h. For the same compound, the AUC(0-t) ([1]; human, plasma, po, 400 mg, patient plasma, oral (1-g) 400 mg QD, C1D15, n = 5, mean, read-out: AUC0-24 h) was 45900 ng·h/mL, the Cmax ([1]; human, plasma, po, 400 mg, patient plasma, oral (1-g) 400 mg QD, C1D15, n = 5, mean, read-out: Cmax) was 2360 ng/mL and the half-life ([1]; human, plasma, po, 400 mg, patient plasma, oral (1-g) 400 mg QD, C1D15, n = 5, mean, read-out: T½ (converted)) was 44.9 h. The Tmax ([1]; human, plasma, po, 600 mg, patient plasma, oral (1-g) 600 mg QD, C1D1, n = 4, *median value, read-out: Tmax*) was 4.5 h, the AUC(0-t) ([1]; human, plasma, po, 600 mg, patient plasma, oral (1-g) 600 mg QD, C1D1, n = 4, mean, read-out: AUC0-24 h) was 26100 ng·h/mL and the Cmax ([1]; human, plasma, po, 600 mg, patient plasma, oral (1-g) 600 mg QD, C1D1, n = 4, mean, read-out: Cmax) was 1390 ng/mL. The half-life ([1]; human, plasma, po, 600 mg, patient plasma, oral (1-g) 600 mg QD, C1D1, n = 4, mean, read-out: T½ (converted)) was 40.9 h, the Tmax ([1]; human, plasma, po, 600 mg, patient plasma, oral (1-g) 600 mg QD, C1D15, n = 4, *median value, read-out: Tmax*) was 6 h and the AUC(0-t) ([1]; human, plasma, po, 600 mg, patient plasma, oral (1-g) 600 mg QD, C1D15, n = 4, mean, read-out: AUC0-24 h) was 48600 ng·h/mL. For the same compound, the Cmax ([1]; human, plasma, po, 600 mg, patient plasma, oral (1-g) 600 mg QD, C1D15, n = 4, mean, read-out: Cmax) was 2680 ng/mL, the half-life ([1]; human, plasma, po, 600 mg, patient plasma, oral (1-g) 600 mg QD, C1D15, n = 4, mean, read-out: T½ (converted)) was 27.6 h and the AUC(0-t) ([1]; human, plasma, po, patients, 100-600 mg QD oral, read-out: AUC0-24h, range) was 7570 to 48600 ng·h/mL. For the same compound, the Cmax ([1]; human, plasma, po, patients, 100-600 mg QD oral, read-out: Cmax, range) was 432 to 2680 ng/mL, the half-life ([1]; human, plasma, po, patients, 100-600 mg QD oral, read-out: mean effective T1/2 at steady state, range) was 20.2 to 48.8 h and the Tmax ([1]; human, plasma, po, patients, 100-600 mg QD oral, read-out: median Tmax, range across the dose levels) was 4 to 13 h. For the same compound, the Cmax ([1]; patient plasma, oral (1-g) 100 mg QD, C1D15 (steady state), n = 3, mean) was 1008.67 ng/mL, the Cmax ([1]; patient plasma, oral (1-g) 200 mg QD, C1D15 (steady state), n = 12, mean) was 1341.75 ng/mL and the “dose proportionality of pharmacokinetics” value ([1]; patients, FIGS. 4A, 4C, 4D) was “dose proportional relationship up to 400 mg but almost plateaued at 400 mg”. For the same compound, the “Cmax and AUC0-24h versus dose” value ([1]; patients, preliminary results) was “dose-dependent increases”, the “conversion to compound (1-h) in patients” value [1] was “partially converted to compound (1-h)” and the “conversion to compound (1-h) in patients” value ([1]; listed as 1-g) was “partially metabolized to form compound 1-h”. It also gave an IC50 (ERa) of 6.02 nM, a Ki (ERa; read-out: inhibitor constant (Ki)) of 0.53 nM and an IC50 (ERa; same value in ng/mL) of 5.91 nM. The CYP3A direct inhibition (CYP3A) was “did not directly inhibit”, the “metabolism by CYP3A5” value [2] was “weakly metabolized” and the “metabolism by CYP3A4” value [3] was “weakly metabolized”. For the same compound, the NOAEL at 28 day (in vivo) was 270 mg/kg/day, the “CYP1A2 mRNA expression increase” value (CYP1A2; 0.5 μM (372 ng/mL)) was 1.4 fold and the “CYP1A2 mRNA expression increase” value (CYP1A2; 2 μM) was 3.1 fold. The “CYP1A2 enzyme activity induction” value (CYP1A2; hepatocytes) was “no induction of CYP1A2 enzyme activity was observed”.
